In patent US20250345512A1, “COMBINATION SODIUM-GLUCOSE COTRANSPORTER INHIBITOR (SGLTI) INSULIN THERAPY FOR GLYCEMIC CONTROL IN TYPE 1 DIABETES” (University of Virginia Patent Foundation, priority 2022, published 2025):

Tested on: participants with T1D
Experiment: Randomized crossover clinical trial (NCT04201496): CGM glycemic outcomes with 5 mg daily empagliflozin adjunctive to AID (Control-IQ, CIQ) or PLGS (Basal-IQ, BIQ)
Assay type: in vivo, human
Settings: for % CGM time <50 mg/dL (<2.8 mmol/L) / % CGM time <60 mg/dL (<3.3 mmol/L) / % CGM time <70 mg/dL (<3.9 mmol/L) / % CGM time >180 mg/dL (>10.0 mmol/L) / % CGM time >250 mg/dL (>13.9 mmol/L) / % CGM time >300 mg/dL (>16.7 mmol/L) / CGM HBGI / CGM LBGI: median (IQR)
Description: FIG. 2 presents a study analysis relative to baseline, control IQ (CIQ) (e.g., AID), and basal IQ (BIQ) (e.g., PLGS) implementation, according to investigation that is demonstrable of one or more embodiments herein. Therein, an experimental arm (G1, G2) providing an initial daily dose of 5 mg empagliflozin (EMPA) is depicted against a control arm (G3, G4) without such dosing (NOEMPA). Relative characteristics of the analysis are provided below.
Study Design: A single-center, randomized, controlled, unblinded, crossover clinical trial (NCT04201496) compared four parallel groups, two groups in the experimental arm (EMPA) with 5 mg daily empagliflozin as adjunctive therapy to PLGS or AID, and two groups in the control arm (NOEMPA) with no drug and with a PLGS system (Basal-IQ, Tandem Diabetes Care) or AID system (Control-IQ, Tandem Diabetes Care). The groups within each arm differed from one another in the order of the randomly assigned crossover technological intervention, relative to PLGS being followed by AID or AID being followed by PLGS, respectively (FIG. 4). The study protocol was approved by the University of Virginia Institutional Review Board (IRB). An investigational device exemption (IDE), including an investigational new drug (IND) application for empagliflozin, was approved by the FDA. Safety aspects were overseen by an external data and safety monitoring board (DSMB). Participants: Major inclusion criteria were T1D treated with insulin for at least one year, use of continuous subcutaneous insulin infusion therapy for at least six months, age 18-65 yrs., no use of glucose lowering agents other than insulin, and Hb1Ac<9% (75 mmol/mol). Randomization: A (1:1:1:1) randomization assigned participants to either Group 1, AID-EMPA (4 weeks) followed by PLGS-EMPA (2 weeks), Group 2, PLGS-EMPA (2 weeks) followed by AID-EMPA (4 weeks), Group 3, AID-NOEMPA (4 weeks) followed by PLGS-NOEMPA (2 weeks), and Group 4, PLGS-NOEMPA (2 weeks) followed by AID-NOEMPA (4 weeks). Procedures: After confirmation of eligibility, participants underwent study equipment and medication training (experimental arm), or only study equipment training (control arm). Study equipment consisted of Dexcom G6® CGM (Dexcom Inc., San Diego, CA), Contour® Next blood glucose (Ascensia Diabetes Care, Basel, Switzerland) and Precision Xtra® blood ketone meters (Abbott, Alameda, CA) with their respective test strips; infusion sets, and the use of the t:slim X2™ insulin pump with Basal-IQ or Control-IQ technologies (Tandem Diabetes Care, San Diego, CA), according to randomization. […] Participants in the experimental arm were asked to record two days of baseline ketone values before initiating the use of the study drug. Thereafter, participants were directed to use the study CGM with EMPA for 1-2 weeks. A tolerance to the medication was assessed prior to the starting of the next study phase, including adherence to the protocol, ketone testing 2-4 times per day with monitored values not greater than 0.6 mmol/L on at least two successive occasions (the first testing upon waking in a fasted state), no adverse events relating to perineal infection or symptomatic postural hypotension, and no evidence of significant hypoglycemia <54 mg/dL, or any other listed adverse effects of the medication. Participants in the control arm were directed to use the study CGM for 1-2 weeks. Sample Size: The total sample size was projected to be 40 participants, assuming 1) 1:1:1:1 randomization; 2) 90% power and type 1 error a=0.01, further reinforcing the feasibility of hierarchical analyses. The projected recruitment sample was n=50, to accommodate up to 20% attrition rate without sacrificing statistical power. Analytical methods: For the primary analysis, TIR during the day in the 4-week AID period was compared between the two EMPA groups versus the two NOEMPA groups using a linear mixed-effects regression model while adjusting for pre-randomization HbAlc and age. […]

[1] = EMPA minus NOEMPA on same insulin system, adjusted for HbA1c
[2] = daytime (7:00-23:00), CIQ-EMPA vs. BIQ-NOEMPA, BIQ-EMPA vs. CIQ-NOEMPA
[3] = daytime (7:00-23:00), CIQ-EMPA vs. CIQ-NOEMPA, BIQ-EMPA vs. BIQ-NOEMPA
[4] = daytime (7:00-23:00), n = 16, mean ± SD
[5] = overall, CIQ-EMPA vs. BIQ-NOEMPA, BIQ-EMPA vs. CIQ-NOEMPA
[6] = overall, CIQ-EMPA vs. CIQ-NOEMPA, BIQ-EMPA vs. BIQ-NOEMPA
[7] = overall, PLGS-EMPA (see Tables 4 and 5)
[8] = overnight, CIQ-EMPA vs. BIQ-NOEMPA, BIQ-EMPA vs. CIQ-NOEMPA
[9] = overnight, CIQ-EMPA vs. CIQ-NOEMPA, BIQ-EMPA vs. BIQ-NOEMPA
[10] = overnight, PLGS-EMPA compared to PLGS-NOEMPA

## OC[C@H]1O[C@@H](c2ccc(Cl)c(Cc3ccc(O[C@H]4CCOC4)cc3)c2)[C@H](O)[C@@H](O)[C@@H]1O [BIQ-EMPA, empagliflozin]
24/7, n = 17
  24/7 HBGI - median (IQR): 3.3(1.8-4.7)
  24/7 LBGI - median (IQR): 0.7(0.6-1)
  24/7 glucose level <70 mg/dL (<3.9 mmol/L) - median % time (IQR): 1.7(0.9-2.7) %
24/7, n = 17, mean ± SD
  24/7 Mean glucose level -: 141 ± 30 mg/dL
[1]
  Difference (95% CI): 24/7 HBGI: −3.7(−6.5 to −1)
  Difference (95% CI): 24/7 LBGI: 0.1(−0.3 to 0.6)
  Difference (95% CI): 24/7 Mean glucose level: −24.1(−42.2 to −6) mg/dL
  Difference (95% CI): 24/7 glucose level <70 mg/dL % time: 0.2(−1.7 to 2.1) percentage points
  Difference (95% CI): Daytime CGM CV: −4.0(−6.8 to −1.2) %
  Difference (95% CI): Daytime CGM SD: −13.2(−21.6 to −4.8) mg/dL
EMPA minus NOEMPA on same insulin system, adjusted for pre-randomization HbA1c
  Difference (95% CI): daytime glucose % Time in range of 70 to 180 mg/dL: 16.5(7.3 to 26) ^ percentage points
Daytime 7:00 to 23:00 h, n = 17, mean ± SD
  Primary: daytime glucose % Time in range of 70 to 180 mg/dL (3.9-10.0 mmol/L): 80 ± 14%
[2]
  Difference (95% CI): % CGM time <50 mg/dL (<2.8 mmol/L): −0.3 percentage points
  Difference (95% CI): % CGM time <60 mg/dL (<3.3 mmol/L): −0.2 percentage points
  Difference (95% CI): % CGM time >180 mg/dL (>10.0 mmol/L): −9.5 percentage points
  Difference (95% CI): % CGM time >250 mg/dL (>13.9 mmol/L): −2.2 percentage points
  Difference (95% CI): % CGM time >300 mg/dL (>16.7 mmol/L): −0.4 percentage points
  Difference (95% CI): CGM HBGI: −1.9
  Difference (95% CI): CGM LBGI: 0.3
  Difference (95% CI): CGM SD: -7.1 mg/dL
  Difference (95% CI): Mean CGM glucose: -14.9 mg/dL
[3]
  Difference (95% CI): % CGM time 70-140 mg/dL (<3.9-7.8 mmol/L): 17.6 percentage points
  Difference (95% CI): % CGM time >180 mg/dL (>10.0 mmol/L): −16.7 percentage points
  Difference (95% CI): % CGM time >250 mg/dL (>13.9 mmol/L): −7.6 percentage points
  Difference (95% CI): % CGM time >300 mg/dL (>16.7 mmol/L): −2.7 percentage points
  Difference (95% CI): CGM HBGI: −4
  Difference (95% CI): CGM LBGI: −0.3
  Difference (95% CI): CGM SD: -13.2 mg/dL
  Difference (95% CI): Mean CGM glucose: -23.8 mg/dL
Daytime (7:00-23:00), CIQ-EMPA vs. CIQ-NOEMPA, BIQ-EMPA vs. BIQ-NOEMPA, listed as PLGS-EMPA
  Difference (95% CI): % CGM time <70-180 mg/dL (3.9-10.0 mmol/L): 16 percentage points
[4]
  % CGM time 70-140 mg/dL (3.9-7.8 mmol/L): 58.1 ± 16.5%
  % CGM time 70-180 mg/dL (3.9-10.0 mmol/L): 80 ± 14.5%
  CGM CV (%): 35.7 ± 3.5%
  CGM SD: 45 ± 14.6 mg/dL
  Mean CGM glucose: 139 ± 26 mg/dL
Daytime (7:00-23:00), n = 16, mean ± SD, listed as PLGS-EMPA
  % CGM time 70-180 mg/dL (3.9-10.0 mmol/L): 80±14.5%
Daytime (7:00-23:00), n = 16
  % CGM time <50 mg/dL (<2.8 mmol/L): 0(0-0.4) %
  % CGM time <60 mg/dL (<3.3 mmol/L): 0.5(0.1-0.9) %
  % CGM time <70 mg/dL (<3.9 mmol/L): 1.7(0.9-2.7) %
  % CGM time >180 mg/dL (>10.0 mmol/L): 11.3(5.3-22.4) %
  % CGM time >250 mg/dL (>13.9 mmol/L): 1.7(0.1-4.4) %
  % CGM time >300 mg/dL (>16.7 mmol/L): 0.1(0-0.8) %
  CGM HBGI: 2.8(1.6-4.9)
  CGM LBGI: 0.7(0.6-0.9)
daytime, n = 17, mean ± SD
  Daytime CGM CV - %: 30.4 ± 3.5%
  Daytime CGM SD -: 44.9 ± 14.7 mg/dL
[5]
  Difference: CGM HBGI: −1.6
  Difference: CGM LBGI: 0.2
[6]
  Difference: CGM HBGI: −4.3
  Difference: CGM LBGI: 0.1
  Difference: CGM SD: -14.3 mg/dL
[7]
  decrease in mean glucose overall: 24 mg/dL
  decrease in percent time in hyperglycemia: 18.6%
overall, n = 16, mean ± SD
  % CGM time <70-140 mg/dL (<3.9-7.8 mmol/L): 56.8 ± 16.5%
  % CGM time <70-180 mg/dL (<3.9-10.0 mmol/L): 79 ± 15.7%
  CGM CV (%): 32.1 ± 3.7%
  CGM SD: 46 ± 14.6 mg/dL
overall, n = 16
  % CGM time <50 mg/dL (<2.8 mmol/L): 0(0-0.4) %
  % CGM time <60 mg/dL (<3.3 mmol/L): 0.5(0.2-0.9) %
  % CGM time <70 mg/dL (<3.9 mmol/L): 1.7(0.9-2.7) %
  % CGM time >180 mg/dL (>10.0 mmol/L): 15(6.7-22.7) %
  % CGM time >250 mg/dL (>13.9 mmol/L): 1.7(0.2-3.6) %
  % CGM time >300 mg/dL (>16.7 mmol/L): 0.2(0-0.6) %
  CGM HBGI: 3.3(1.8-4.7)
  CGM LBGI: 0.7(0.6-1)
[8]
  Difference (95% CI): % CGM time <50 mg/dL (<2.8 mmol/L): −0.4 percentage points
  Difference (95% CI): % CGM time >180 mg/dL (>10.0 mmol/L): −5.1 percentage points
  Difference (95% CI): % CGM time >300 mg/dL (>16.7 mmol/L): −0.3 percentage points
  Difference (95% CI): CGM CV (%): −3.1%
  Difference (95% CI): CGM HBGI: −1.1
  Difference (95% CI): CGM LBGI: 0.3
  Difference (95% CI): CGM SD: -8.2 mg/dL
  Difference (95% CI): Mean CGM glucose: -9.8 mg/dL
[9]
  Difference (95% CI): % CGM time >180 mg/dL (>10.0 mmol/L): −18.2 percentage points
  Difference (95% CI): % CGM time >250 mg/dL (>13.9 mmol/L): −13.9 percentage points
  Difference (95% CI): % CGM time >300 mg/dL (>16.7 mmol/L): −4.8 percentage points
  Difference (95% CI): CGM HBGI: −6.2
  Difference (95% CI): CGM LBGI: 0.2
  Difference (95% CI): CGM SD: -17.2 mg/dL
[10]
  decrease in time in hyperglycemia: 7.6%
  increase in percent TIR: 17%
overnight, n = 16, mean ± SD
  % CGM time 70-140 mg/dL (3.9-7.8 mmol/L): 54 ± 21%
  % CGM time 70-180 mg/dL (3.9-10.0 mmol/L): 76 ± 21%
  CGM CV (%): 30.5 ± 4.2%
  CGM SD: 44.5 ± 14 mg/dL
  Mean CGM glucose: 145 ± 41 mg/dL
overnight, n = 16
  % CGM time <50 mg/dL (<2.8 mmol/L): 0(0-0.5) %
  % CGM time <60 mg/dL (<3.3 mmol/L): 0.5(0.1-1.1) %
  % CGM time <70 mg/dL (<3.9 mmol/L): 1.5(0.4-2.7) %
  % CGM time >180 mg/dL (>10.0 mmol/L): 16.2(7-30.8) %
  % CGM time >250 mg/dL (>13.9 mmol/L): 0.1(0-2.4) %
  % CGM time >300 mg/dL (>16.7 mmol/L): 0(0-0.2) %
  CGM HBGI: 3.3(2.1-5.2)
  CGM LBGI: 0.7(0.4-1.4)
overnight, out of 8 h of the night-time, listed as PLGS-EMPA
  night-time in range, h out of 8 h: 6 h
